Laboratory results: patent US20240336624A1, “PARP INHIBITOR CONTAINING PIPERAZINE STRUCTURE, PREPARATION METHOD THEREFOR AND PHARMACEUTICAL USE THEREOF” (WIGEN BIOMEDICINE TECHNOLOGY (SHANGHAI) CO., LTD., priority 2021, published 2024)

Target: PARP-1 enzyme (Homo sapiens, UniProt P09874)
Assay: In vitro inhibition of activity of poly (ADP-ribose) polymerase [PARP-1 enzyme], histone-coated plate chemiluminescence
Format: biochemical
Details: class symbols; read-out: Inhibitory activity against PARP-1 (IC50)
Method: Example 69. Experiment on In Vitro Inhibition of Activity of Poly (ADP-Ribose) Polymerase [PARP-1 Enzyme] with Compounds of the Present Invention
The histones were coated onto 384-well plates at 4° C. overnight, rinsed three times with a PBST buffer, and blocked at room temperature for 1 h. After 1 h, the histones were rinsed three more times with PBST, DMSO or a serially diluted compound, and a mixture containing PARP-1 enzymes and DNA was added, and the resulting mixture was incubated at 25° C. for 10 min. After 10 min NAD^+ was added to start the reaction. After reacting at room temperature for 60 min, the reaction solution was rinsed three times with PBST, and the level of poly/mono-ADP ribose on the histones was detected by the addition of a poly/mono-ADP ribose antibody conjugated with horseradish peroxidase ([…]). After incubation at room temperature for 1 h, HRP substrates ECL A and B were added, and Envision quantified chemiluminescence. The inhibition percentages and IC50 of the compounds were calculated compared to the control group DMSO.

Sequence of PARP-1 enzyme (P09874 whole entry): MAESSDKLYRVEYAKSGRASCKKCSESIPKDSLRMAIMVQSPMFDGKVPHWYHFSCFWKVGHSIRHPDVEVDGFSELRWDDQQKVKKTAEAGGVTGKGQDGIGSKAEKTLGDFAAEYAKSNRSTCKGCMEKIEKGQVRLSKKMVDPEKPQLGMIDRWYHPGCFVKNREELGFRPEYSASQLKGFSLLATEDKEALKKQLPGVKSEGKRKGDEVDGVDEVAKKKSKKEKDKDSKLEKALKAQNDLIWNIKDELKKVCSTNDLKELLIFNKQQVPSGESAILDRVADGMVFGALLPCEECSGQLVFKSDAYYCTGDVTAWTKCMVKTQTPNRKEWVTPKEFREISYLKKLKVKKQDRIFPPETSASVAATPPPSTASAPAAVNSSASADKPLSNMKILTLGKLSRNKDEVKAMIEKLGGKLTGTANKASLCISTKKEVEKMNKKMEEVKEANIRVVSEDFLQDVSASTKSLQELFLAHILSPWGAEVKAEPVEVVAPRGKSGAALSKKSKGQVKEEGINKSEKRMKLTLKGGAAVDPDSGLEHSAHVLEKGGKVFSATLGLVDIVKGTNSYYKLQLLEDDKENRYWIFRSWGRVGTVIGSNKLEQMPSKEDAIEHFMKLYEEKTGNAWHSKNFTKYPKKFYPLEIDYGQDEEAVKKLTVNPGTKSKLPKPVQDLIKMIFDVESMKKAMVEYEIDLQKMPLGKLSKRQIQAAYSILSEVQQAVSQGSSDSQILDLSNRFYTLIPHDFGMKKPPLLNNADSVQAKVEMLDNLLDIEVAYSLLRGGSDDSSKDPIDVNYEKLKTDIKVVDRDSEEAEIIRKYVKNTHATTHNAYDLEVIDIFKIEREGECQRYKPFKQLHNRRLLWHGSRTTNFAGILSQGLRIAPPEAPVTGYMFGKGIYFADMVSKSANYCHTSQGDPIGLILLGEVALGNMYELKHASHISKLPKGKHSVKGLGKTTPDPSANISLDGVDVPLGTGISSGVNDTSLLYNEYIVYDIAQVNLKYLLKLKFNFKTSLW

Row | SMILES | IC50 [µM]
1 | CCc1nc2ccc(CN3CCN(c4ccc(C(=O)NC5CC5)nc4)CC3)nc2[nH]c1=O [Compound 46] | ≤ 0.01
2 | CCc1cc2ncc(CN3CCN(c4ccc(C(=O)NC5CC5F)nn4)CC3)cc2[nH]c1=O (stereo not drawn) [Compound 37] | 0.01 to 0.05
3 | CCc1nc2ccc(CN3CCN(c4ccc(C(=O)NC5CC5)nc4)CC3)cc2[nH]c1=O [Compound 14] | ≤ 0.01
4 | CCc1cc2ccc(CN3CCN(c4ccc(C(=O)NC)nc4C(F)F)CC3)nc2[nH]c1=O [Compound 53] | 0.01 to 0.05
5 | CCC1C(=O)Nc2cc(CN3CCN(c4ccc(C(=O)NC)nc4F)CC3)cnc2C1(C)C (stereo not drawn) [Compound 61] | ≤ 0.01
6 | CCc1nc(C(=O)NC2CC2)ccc1N1CCN(Cc2ccc3nc(CC)c(=O)[nH]c3c2)CC1 [Compound 23] | ≤ 0.01
7 | CCc1nc2ccc(CN3CCN(c4ccc(C(=O)NC5CC5)nc4F)CC3)cc2[nH]c1=O [Compound 18] | ≤ 0.01
8 | CCc1cc2ncc(CN3CCN(c4ccc(C(=O)NC5CC5)nc4F)CC3)cc2[nH]c1=O [Compound 7] | 0.01 to 0.05
9 | CCC1Cc2ncc(CN3CCN(c4ccc(C(=O)NC5CC5)nc4)CC3)cc2NC1=O (stereo not drawn) [Compound 60] | 0.01 to 0.05
10 | O=C(NC1CC1)c1ccc(N2CCN(Cc3ccc4nc(CCF)c(=O)[nH]c4c3)CC2)cn1 [Compound 16] | ≤ 0.01
11 | CCc1cc2ncc(CN3CCN(c4cnc(C(=O)NC5CC5)nc4)CC3)cc2[nH]c1=O [Compound 32] | 0.01 to 0.05
12 | CCc1cc2ncc(CN3CCN(c4ccc(C(=O)NC5CC5F)nc4)CC3)cc2[nH]c1=O (stereo not drawn) [Compound 11] | ≤ 0.01
13 | CNC(=O)c1ccc(N2CCN(C(C)c3cnc4cc(C5CC5)c(=O)[nH]c4c3)CC2)cn1 (stereo not drawn) [Compound 68] | ≤ 0.01
14 | CNC(=O)c1ccc(N2CCN(Cc3cnc4cc(C5CC5)c(=O)[nH]c4c3)CC2)nn1 [Compound 67] | ≤ 0.01
15 | CCc1nc2ccc(CN3CCN(c4ccc(C(=O)NC)nc4)CC3)nc2[nH]c1=O [Compound 4] | ≤ 0.01
16 | CCc1cc2ncc(CN3CCN(c4cnc(C(=O)NC5CC5)nc4C(F)F)CC3)cc2[nH]c1=O [Compound 34] | ≤ 0.01
17 | CCc1cc2ncc(CN3CCN(c4ccc(C(=O)NC)nc4C(F)F)CC3)nc2[nH]c1=O [Compound 50] | ≤ 0.01
18 | O=C(NC1CC1)c1ccc(N2CCN(Cc3ccc4nc(CC(F)F)c(=O)[nH]c4c3)CC2)cn1 [Compound 17] | ≤ 0.01
19 | CCc1cc2ncc(CN3CCN(c4ccc(C(=O)NC5CC5)nn4)CC3)cc2[nH]c1=O [Compound 33] | ≤ 0.01
20 | CCc1cc2ncc(CN3CCN(c4ccc(C(=O)NC5CC(F)C5)nc4)CC3)cc2[nH]c1=O (stereo not drawn) [Compound 12] | ≤ 0.01
21 | CCC1Oc2ncc(CN3CCN(c4ccc(C(=O)NC5CC5)nc4)CC3)cc2NC1=O (stereo not drawn) [Compound 55] | 0.01 to 0.05
22 | CCc1nc(C(=O)NC)ccc1N1CCN(C(C)c2cnc3cc(CC)c(=O)[nH]c3c2)CC1 (stereo not drawn) [Compound 40] | 0.01 to 0.05
23 | CCc1nc2ccc(CN3CCN(c4ccc(C(=O)NC5CC5)nc4C(F)F)CC3)cc2[nH]c1=O [Compound 24] | ≤ 0.01

Row | SMILES | IC50 [µM]
24 | O=C(NC1CC1)c1ccc(N2CCN(Cc3ccc4nc(C5CC5)c(=O)[nH]c4c3)CC2)cn1 [Compound 63] | ≤ 0.01
25 | CCc1cc2ncc(CN3CCN(c4ccc(C(=O)NC)nc4F)CC3)nc2[nH]c1=O [Compound 51] | 0.01 to 0.05
26 | CCc1nc2ccc(CN3CCN(c4ccc(C(=O)NC5CC(F)(F)C5)nc4)CC3)cc2[nH]c1=O [Compound 22] | ≤ 0.01
27 | CCc1cc2ncc(C(C)N3CCN(c4ccc(C(=O)NC5CC5)nc4)CC3)cc2[nH]c1=O (stereo not drawn) [Compound 42] | 0.01 to 0.05
28 | CNC(=O)c1cnc(N2CCN(Cc3cnc4cc(C5CC5)c(=O)[nH]c4c3)CC2)cn1 [Compound 65] | 0.01 to 0.05
29 | CCc1cc2ncc(CN3CCN(c4cnc(C(=O)NC5CC5)cn4)CC3)cc2[nH]c1=O [Compound 31] | 0.01 to 0.05
30 | CCC1Oc2ncc(CN3CCN(c4ccc(C(=O)NC)nc4F)CC3)cc2NC1=O (stereo not drawn) [Compound 56] | ≤ 0.01
31 | O=C(NC1CC1)c1ccc(N2CCN(Cc3cnc4cc(C5CC5)c(=O)[nH]c4c3)CC2)cn1 [Compound 62] | 0.01 to 0.05
32 | CCc1cc2ncc(CN3CCN(c4ccc(C(=O)NC5CC5)nc4)CC3)nc2[nH]c1=O [Compound 49] | ≤ 0.01
33 | CCc1cc2ncc(CN3CCN(c4cnc(C(=O)NC5CC(F)C5)cn4)CC3)cc2[nH]c1=O (stereo not drawn) [Compound 38] | 0.01 to 0.05
34 | CCC1C(=O)Nc2cc(CN3CCN(c4ccc(C(=O)NC5CC5)nc4)CC3)cnc2N1C (stereo not drawn) [Compound 59] | 0.01 to 0.05
35 | CCc1nc2ccc(CN3CCN(c4ccc(C(=O)NC5CC(F)C5)nc4)CC3)cc2[nH]c1=O (stereo not drawn) [Compound 21] | ≤ 0.01
36 | CCc1nc2ccc(CN3CCN(c4ccc(C(=O)NC5CC5)nc4C)CC3)cc2[nH]c1=O [Compound 25] | ≤ 0.01
37 | CCc1nc2ncc(CN3CCN(c4ccc(C(=O)NC5CC5)nc4)CC3)cc2[nH]c1=O [Compound 26] | ≤ 0.01
38 | CCc1cc2ccc(CN3CCN(c4ccc(C(=O)NC5CC5)nc4)CC3)nc2[nH]c1=O [Compound 52] | 0.01 to 0.05
39 | CCC1Nc2ncc(CN3CCN(c4ccc(C(=O)NC)nc4)CC3)cc2NC1=O (stereo not drawn) [Compound 57] | ≤ 0.01
40 | CCc1cc2ncc(CN3CCN(c4ccc(C(=O)NC5CC5)nc4C(F)F)CC3)cc2[nH]c1=O [Compound 9] | 0.01 to 0.05
41 | CCc1nc2ncc(CN3CCN(c4ccc(C(=O)NC5CC5)nc4C(F)F)CC3)cc2[nH]c1=O [Compound 28] | 0.01 to 0.05
42 | CCc1cc2ncc(CN3CCN(c4cnc(C(=O)NC5CC(F)(F)C5)nc4)CC3)cc2[nH]c1=O [Compound 39] | 0.01 to 0.05
43 | O=C(NC1CC1)c1ccc(N2CCN(Cc3cnc4nc(C5CC5)c(=O)[nH]c4c3)CC2)cn1 [Compound 64] | ≤ 0.01
44 | CCc1nc2ccc(C(C)N3CCN(c4ccc(C(=O)NC5CC5)nc4)CC3)cc2[nH]c1=O (stereo not drawn) [Compound 19] | ≤ 0.01
45 | CCc1cc2ncc(CN3CCN(c4ccc(C(=O)NC)nn4)CC3)cc2[nH]c1=O [Compound 30] | 0.01 to 0.05

The next lines start with the values.

Row | IC50 [µM] | SMILES
46 | > 0.05 | CCc1cc2ncc(CN3CCN(c4ccc(C(=O)NC5CCC5)nc4)CC3)cc2[nH]c1=O [Compound 6]
47 | ≤ 0.01 | CCc1nc2ccc(CN3CCN(c4ccc(C(=O)NC5CCC5)nc4)CC3)cc2[nH]c1=O [Compound 15]
48 | 0.01 to 0.05 | CCc1cc2ncc(C(C)N3CCN(c4ccc(C(=O)NC5CC5)nc4)CC3)cc2[nH]c1=O (stereo not drawn) [Compound 10]
49 | 0.01 to 0.05 | CCc1nc2ncc(CN3CCN(c4ccc(C(=O)NC5CC5)nc4F)CC3)cc2[nH]c1=O [Compound 27]
50 | ≤ 0.01 | CCc1cc2ccc(CN3CCN(c4ccc(C(=O)NC)nc4F)CC3)nc2[nH]c1=O [Compound 54]
51 | ≤ 0.01 | CCc1nc2ccc(CN3CCN(c4ccc(C(=O)NC)nc4F)CC3)nc2[nH]c1=O [Compound 48]
52 | ≤ 0.01 | CCc1cc2ncc(CN3CCN(c4ccc(C(=O)NC)nc4)CC3)nc2[nH]c1=O [Compound 44]
53 | ≤ 0.01 | CCc1cc2ncc(C(C)N3CCN(c4ccc(C(=O)NC)nc4)CC3)cc2[nH]c1=O (stereo not drawn) [Compound 3]
54 | 0.01 to 0.05 | CCc1cc2ncc(C(C)N3CCN(c4ccc(C(=O)NC)nc4F)CC3)cc2[nH]c1=O (stereo not drawn) [Compound 41]
55 | 0.01 to 0.05 | CCc1cc2ncc(CN3CCN(c4cnc(C(=O)NC)cn4)CC3)cc2[nH]c1=O [Compound 29]
56 | ≤ 0.01 | CCc1cc2ncc(C(C)N3CCN(c4ccc(C(=O)NC)nc4C(F)F)CC3)cc2[nH]c1=O (stereo not drawn) [Compound 43]
57 | ≤ 0.01 | CCc1cc2ncc(CN3CCN(c4cnc(C(=O)NC)nc4)CC3)cc2[nH]c1=O [Compound 2]
58 | 0.01 to 0.05 | CCc1cc2ncc(CN3CCN(c4ccc(C(=O)NC5CC5)nc4C)CC3)cc2[nH]c1=O [Compound 8]
59 | ≤ 0.01 | CCc1cc2ncc(C(C)N3CCN(c4cnc(C(=O)NC5CC5)nc4)CC3)cc2[nH]c1=O (stereo not drawn) [Compound 35]
60 | ≤ 0.01 | CCc1cc2ccc(CN3CCN(c4ccc(C(=O)NC)nc4)CC3)nc2[nH]c1=O [Compound 45]
61 | ≤ 0.01 | CCC1C(=O)Nc2cc(CN3CCN(c4ccc(C(=O)NC)nc4)CC3)cnc2N1C (stereo not drawn) [Compound 58]
62 | ≤ 0.01 | CCc1cc2ncc(CN3CCN(c4ccc(C(=O)NC5CC(F)(F)C5)nc4)CC3)cc2[nH]c1=O [Compound 13]
63 | ≤ 0.01 | CCc1nc2ccc(CN3CCN(c4ccc(C(=O)NC)nc4C)CC3)nc2[nH]c1=O [Compound 47]
64 | ≤ 0.01 | CCc1cc2ncc(CN3CCN(c4cnc(C(=O)NC5CC5)nc4F)CC3)cc2[nH]c1=O [Compound 36]
65 | 0.01 to 0.05 | CNC(=O)c1ncc(N2CCN(Cc3cnc4cc(C5CC5)c(=O)[nH]c4c3)CC2)cn1 [Compound 66]

Same assay, conditions: numeric values; read-out: Inhibitory activity against PARP-1 (IC50)

Row | IC50 [µM] | SMILES
66 | 0.0017 | CCC1Oc2ncc(CN3CCN(c4ccc(C(=O)NC)nc4)CC3)cc2NC1=O (stereo not drawn) [Compound 5]
